According to the NIST ThermoML archive (doi:10.1016/j.jct.2005.03.013):
± gives the expanded uncertainty stated by the source.

What was measured:
[1] = for viscosity: 101.33 kPa, Liquid
[2] = molar heat capacity at constant pressure; details: 101.33 kPa, Liquid, Large sample (1 g) DSC

| Triple point temperature ([1]; Crystal) [K] | SMILES | viscosity ([1]; 283 K) [mPa·s] | viscosity ([1]; 298 K) [mPa·s] | viscosity ([1]; 303 K) [mPa·s] | viscosity ([1]; 313 K) [mPa·s] | viscosity ([1]; 323 K) [mPa·s] | viscosity ([1]; 333 K) [mPa·s] | viscosity ([1]; 343 K) [mPa·s] | molar heat capacity at constant pressure ([2]; 298 K) [J/K/mol] | molar heat capacity at constant pressure ([2]; 323 K) [J/K/mol] | Glass transition temperature [1] [°C] | viscosity ([1]; 293 K) [mPa·s] | Triple point temperature ([1]; Metastable crystal) [K] |
| --- | --- | --- | --- | --- | --- | --- | --- | --- | --- | --- | --- | --- | --- |
|  | CCCCCCCCCCCCCC[N+](C)(CCOCCOCCOCCOCCOCCO)CCOCCOCCOCCOCCOCCO.COS(=O)(=O)[O-] | 10240 ± 4400 | 2790 ± 910 | 1910 ± 560 | 964 ± 230 | 511 ± 98 | 300 ± 44 | 187 ± 21 | 1066 ± 110 | 1098 ± 110 |  |  |  |
|  | CCCCCCCCn1cc[n+](C)c1.O=S(=O)([N-]S(=O)(=O)C(F)(F)F)C(F)(F)F |  |  |  |  |  |  |  | 654 ± 66 | 677 ± 68 | -84 ± 4 |  |  |
|  | CCCCCC[n+]1cccc(C)c1.O=S(=O)([N-]S(=O)(=O)C(F)(F)F)C(F)(F)F | 197 ± 14 | 85 ± 5 | 67 ± 4 | 44 ± 2 | 30 ± 2 | 22 ± 1 | 16 ± 1 | 624 ± 63 | 644 ± 65 | -82 ± 4 | 110 ± 7 |  |
|  | CCCCCC[n+]1ccn(C)c1.O=S(=O)([N-]S(=O)(=O)C(F)(F)F)C(F)(F)F | 148 ± 10 | 68 ± 4 | 55 ± 3 | 37 ± 2 | 26 ± 1 | 19 ± 1 | 15 ± 1 | 583 ± 59 | 604 ± 61 | -84 ± 4 | 86 ± 5 | 266 ± 3 |
|  | CCCC[n+]1cccc(C)c1.O=S(=O)([N-]S(=O)(=O)C(F)(F)F)C(F)(F)F | 138 ± 8 | 63 ± 3 | 51 ± 2 | 34 ± 2 | 24 ± 1 | 18 ± 1 | 14 ± 1 | 622 ± 63 | 641 ± 65 | -84 ± 4 | 80 ± 4 |  |
|  | CCn1cc[n+](C)c1.O=S(=O)([N-]S(=O)(=O)C(F)(F)F)C(F)(F)F | 52 ± 3 | 32 ± 2 | 26 ± 1 | 19 ± 1 | 15 ± 1 | 12 ± 1 | 9 ± 1 |  |  |  | 36 ± 2 |  |
| 368 ± 3 | CCCC[n+]1cc(C)cc(C)c1.[Br-] [1-butyl-3,5-dimethylpyridinium bromide] |  |  |  |  |  |  |  |  |  | -24 ± 4 |  |  |
|  | CCCCn1cc[n+](C)c1.COCCOCCOS(=O)(=O)[O-] [1-butyl-3-methylimidazolium 2-(2-methoxyethoxy)ethyl sulfate] | 4070 ± 730 | 1033 ± 140 | 731 ± 82 | 392 ± 36 | 228 ± 17 | 146 ± 9 | 98 ± 5 | 643 ± 65 | 652 ± 66 | -62 ± 4 | 1676 ± 260 |  |
|  | CC(=O)[O-].CCCCn1cc[n+](C)c1 [1-butyl-3-methylimidazolium acetate] | 1630 ± 240 | 440 ± 44 | 309 ± 27 | 165 ± 12 | 97 ± 6 | 62 ± 3 | 42 ± 2 |  |  |  | 646 ± 80 |  |
|  | CCCCn1cc[n+](C)c1.O=C([O-])C(F)(F)F [1-butyl-3-methylimidazolium trifluoroacetate] | 155 ± 10 | 70 ± 4 | 53 ± 3 | 37 ± 2 | 26 ± 1 | 19 ± 1 | 15 ± 1 |  |  |  | 89 ± 5 |  |
|  | CCCC[n+]1cccc(C)c1.[Br-] [1-butyl-3-methylpyridinium bromide] |  |  |  |  |  |  |  |  |  | -36 ± 4 |  |  |
|  | CCCC[n+]1cccc(C)c1.F[B-](F)(F)F [1-butyl-3-methylpyridinium tetrafluoroborate] | 517 ± 53 | 177 ± 13 | 132 ± 8 | 78 ± 4 | 48 ± 3 | 33 ± 2 | 23 ± 1 | 405 ± 41 | 421 ± 43 | -76 ± 4 | 246 ± 22 |  |
| 495 ± 3 | CCCC[n+]1ccc(N(C)C)cc1.[Br-] [1-butyl-4-(dimethylamino)pyridinium bromide] |  |  |  |  |  |  |  |  |  |  |  |  |
| 378 ± 3 | CCCC[n+]1ccccc1.[Br-] [1-butylpyridinium bromide] |  |  |  |  |  |  |  |  |  |  |  |  |
|  | CCOS(=O)(=O)[O-].CC[n+]1cccc(C)c1 [1-ethyl-3-methylpyridinium ethylsulfate] | 414 ± 39 | 150 ± 10 | 114 ± 7 | 70 ± 4 | 45 ± 2 | 32 ± 2 | 23 ± 1 | 389 ± 39 | 402 ± 41 | -71 ± 3 | 204 ± 17 |  |
|  | CCOS(=O)(=O)[O-].CC[n+]1ccccc1 [1-ethylpyridinium ethyl sulfate] | 356 ± 32 | 137 ± 9 | 105 ± 6 | 66 ± 4 | 43 ± 2 | 31 ± 2 | 23 ± 1 |  |  |  | 183 ± 14 |  |
|  | CCCCCCn1cc[n+](C)c1.F[B-](F)(F)F [1-hexyl-3-methylimidazolium tetrafluoroborate] |  |  |  |  |  |  |  | 416 ± 42 | 433 ± 44 | -79 ± 4 |  |  |
|  | CCCCCC[n+]1cccc(C)c1.[Br-] [1-hexyl-3-methylpyridinium bromide] |  |  |  |  |  |  |  | 343 ± 35 | 358 ± 36 | -37 ± 4 |  |  |
|  | CCCCCC[n+]1ccc(N2CCC(C)CC2)cc1.[Br-] [1-hexyl-4-(4-methyl-1-piperidinyl)pyridinium bromide] |  |  |  |  |  |  |  |  |  | 33 ± 4 |  |  |
|  | CCCCCCCCn1cc[n+](C)c1.[Br-] [1-methyl-3-octylimidazolium bromide] |  |  |  |  |  |  |  | 392 ± 40 | 408 ± 41 |  |  |  |
|  | CCCCCCCC[n+]1ccn(C)c1.F[B-](F)(F)F [1-methyl-3-octylimidazolium tetrafluoroborate] |  |  |  |  |  |  |  | 506 ± 51 | 526 ± 53 | -81 ± 4 |  |  |
| 392 ± 3 | CCCCCC[n+]1ccc(N(C)C)c(C)c1.[Br-] [4-(dimethylamino)-1-hexyl-3-methylpyridinium bromide] |  |  |  |  |  |  |  |  |  | -2 ± 4 |  |  |
| 469 ± 3 | CCCCCC[n+]1ccc(N(C)C)cc1.[Br-] [4-(dimethylamino)-1-hexylpyridinium bromide] |  |  |  |  |  |  |  |  |  |  |  |  |

| SMILES | Triple point temperature ([1]; Crystal) [K] | viscosity ([1]; 283 K) [mPa·s] | viscosity ([1]; 298 K) [mPa·s] | viscosity ([1]; 303 K) [mPa·s] | viscosity ([1]; 313 K) [mPa·s] | viscosity ([1]; 323 K) [mPa·s] | viscosity ([1]; 333 K) [mPa·s] | viscosity ([1]; 343 K) [mPa·s] | molar heat capacity at constant pressure ([2]; 298 K) [J/K/mol] | molar heat capacity at constant pressure ([2]; 323 K) [J/K/mol] | Glass transition temperature [1] [°C] | viscosity ([1]; 293 K) [mPa·s] | Triple point temperature ([1]; Metastable crystal) [K] |
| --- | --- | --- | --- | --- | --- | --- | --- | --- | --- | --- | --- | --- | --- |
| CCCCCC[n+]1cc(C)cc(C)c1.O=S(=O)([N-]S(=O)(=O)C(F)(F)F)C(F)(F)F | 283 ± 3 | 251 ± 20 | 104 ± 6 | 81 ± 4 | 52 ± 3 | 35 ± 2 | 24 ± 1 | 18 ± 1 | 620 ± 63 | 665 ± 67 | -76 ± 4 | 136 ± 10 |  |
| CCCCCCn1cc[n+](C)c1C.O=S(=O)([N-]S(=O)(=O)C(F)(F)F)C(F)(F)F | 268 ± 3 | 317 ± 27 | 131 ± 9 | 101 ± 6 | 63 ± 3 | 42 ± 2 | 30 ± 2 | 22 ± 1 | 686 ± 69 | 705 ± 71 | -74 ± 4 | 171 ± 13 |  |
| CCCCCC[n+]1ccccc1.O=S(=O)([N-]S(=O)(=O)C(F)(F)F)C(F)(F)F [1-hexylpyridinium bis(trifluromethylsulfonyl)imide] | 273 ± 3 | 189 ± 14 | 80 ± 5 | 64 ± 3 | 42 ± 2 | 29 ± 2 | 21 ± 1 | 16 ± 1 | 612 ± 62 | 632 ± 64 | -77 ± 4 | 106 ± 7 |  |
